According to patent US5840684A, “Glycopeptide antibiotic derivatives” (Eli Lilly and Company, priority 1995, dated 1998):
≈ marks a conversion by molar mass, not a printed value.

What was measured:
[1] = test system: vancomycin-susceptible enterococci; experiment: broth micro-dilution, mean geometric MIC; assay type: cell-based, Enterococcus faecium and Enterococcus faecalis; details: enterococci, 24-hour incubation
[2] = test system: Streptococcus pyogenes C203; experiment: broth micro-dilution MIC; assay type: cell-based
Experimental: (§1) The MIC's were determined using a standard broth micro-dilution assay.

[3] = test system: Staphylococcus aureus 491; experiment: broth micro-dilution MIC; assay type: cell-based
Experimental: as §1

Entercoccus faecium 276 = experiment: broth micro-dilution MIC; assay type: cell-based
Experimental: as §1

[4] = test system: Staphylococcus aureus SA1199; experiment: broth micro-dilution MIC; assay type: cell-based
Experimental: as §1

[5] = test system: Staphylococcus aureus 447; experiment: broth micro-dilution MIC; assay type: cell-based
Experimental: as §1

[6] = test system: Entercoccus faecium 180-1; experiment: broth micro-dilution MIC; assay type: cell-based
Experimental: as §1

[7] = test system: Staphylococcus aureus X400; experiment: broth micro-dilution MIC; assay type: cell-based
Experimental: as §1

[8] = test system: Staphylococcus aureus 446; experiment: broth micro-dilution MIC; assay type: cell-based
Experimental: as §1

[9] = test system: Staphylococcus aureus 489; experiment: broth micro-dilution MIC; assay type: cell-based
Experimental: as §1

[10] = test system: Staphylococcus aureus SA1199A; experiment: broth micro-dilution MIC; assay type: cell-based
Experimental: as §1

[11] = test system: Staphylococcus aureus X778; experiment: broth micro-dilution MIC; assay type: cell-based
Experimental: as §1

[12] = test system: vancomycin-resistant enterococci; experiment: broth micro-dilution, mean geometric MIC; assay type: cell-based, Enterococcus faecium and Enterococcus faecalis; details: enterococci, 24-hour incubation
[13] = test system: Streptococcus pneumoniae P1; experiment: broth micro-dilution MIC; assay type: cell-based
Experimental: (§2) The formula I compounds have in vitro and in vivo activity against Gram-positive pathogenic bacteria. The MIC's were determined using a standard broth micro-dilution assay.

[14] = test system: Enterococcus gallinarum 245; experiment: broth micro-dilution MIC; assay type: cell-based; details: Enterococcus gallinarum 245
Experimental: as §2

[15] = test system: Staphylococcus haemolyticus 105; experiment: broth micro-dilution MIC; assay type: cell-based
Experimental: as §2

Entercoccus faecium 180 = experiment: broth micro-dilution MIC; assay type: cell-based; details: Entercoccus faecium 180
Experimental: as §2

[16] = test system: Haemophilus influenzae RD; experiment: broth micro-dilution MIC; assay type: cell-based; details: Haemophilus influenzae RD
Experimental: as §2

[17] = test system: Staphylococcus haemolyticus 415; experiment: broth micro-dilution MIC; assay type: cell-based
Experimental: as §2

Entercoccus faecium 2041 = experiment: broth micro-dilution MIC; assay type: cell-based; details: Entercoccus faecium 2041
Experimental: as §2

[18] = test system: Staphylococcus aureus S13E; assay type: cell-based
Experimental: as §1

[19] = test system: Staphylococcus aureus SA1199B; assay type: cell-based
Experimental: as §1

[20] = test system: Staphylococcus epidermidis 270; experiment: broth micro-dilution MIC; assay type: cell-based
Experimental: as §2

| Structure (SMILES) | mean geometric MIC, Vancomycin Sensitive Strains [1] | MIC [3] | MIC (Entercoccus faecium 276) | MIC [4] | MIC [6] | MIC [7] | MIC [8] | MIC [9] | MIC [11] | mean geometric MIC, Vancomycin Resistant Strains [12] | MIC [13] | MIC [14] | MIC [15] | MIC (Entercoccus faecium 180) | MIC [16] | MIC [17] | MIC (Entercoccus faecium 2041) | MIC [18] | MIC [19] | MIC [20] | other results |
| --- | --- | --- | --- | --- | --- | --- | --- | --- | --- | --- | --- | --- | --- | --- | --- | --- | --- | --- | --- | --- | --- |
| CNC(CC(C)C)C(=O)NC1C(=O)NC(CC(N)=O)C(=O)NC2C(=O)NC3C(=O)NC(C(=O)NC(C(=O)O)c4cc(O)cc(O)c4-c4cc3ccc4O)C(OC3CC(C)(N)C(O)C(C)O3)c3ccc(c(Cl)c3)Oc3cc2cc(c3OC2OC(CO)C(O)C(O)C2OC2CC(C)(NCCCCC3CCCCC3)C(O)C(C)O2)Oc2ccc(cc2Cl)C1O (centres unmarked) [Compound 205] | 0.036 µg/mL | 0.5 µg/mL (≈ 0.289 µM) | 0.5 µg/mL (≈ 0.289 µM) | 1 µg/mL (≈ 0.578 µM) | ≤ 0.06 µg/mL | 0.5 µg/mL (≈ 0.289 µM) | 2 µg/mL (≈ 1.16 µM) | 0.5 µg/mL (≈ 0.289 µM) | 0.5 µg/mL (≈ 0.289 µM) | 1 µg/mL | ≤ 0.06 µg/mL | 1 µg/mL (≈ 0.578 µM) | 1 µg/mL (≈ 0.578 µM) | 0.5 µg/mL (≈ 0.289 µM) | 16 µg/mL (≈ 9.24 µM) | 1 µg/mL (≈ 0.578 µM) | 0.25 µg/mL (≈ 0.144 µM) | 0.5 µg/mL (≈ 0.289 µM) | 0.5 µg/mL (≈ 0.289 µM) |  | MIC [2]: ≤ 0.06 µg/mL; MIC [5]: 0.5 µg/mL (≈ 0.289 µM); MIC [10]: ≤ 0.06 µg/mL |
| CC#CCCCCCCCCCCNC1(C)CC(OC2C(Oc3c4cc5cc3Oc3ccc(cc3Cl)C(OC3CC(C)(N)C(O)C(C)O3)C3NC(=O)C(NC(=O)C5NC(=O)C(CC(N)=O)NC(=O)C(NC(=O)C(CC(C)C)NC)C(O)c5ccc(c(Cl)c5)O4)c4ccc(O)c(c4)-c4c(O)cc(O)cc4C(C(=O)O)NC3=O)OC(CO)C(O)C2O)OC(C)C1O (centres unmarked) [Compound 199] | 0.036 µg/mL | 0.5 µg/mL (≈ 0.282 µM) | 1 µg/mL (≈ 0.565 µM) | 1 µg/mL (≈ 0.565 µM) | ≤ 0.06 µg/mL | 2 µg/mL (≈ 1.13 µM) | 0.5 µg/mL (≈ 0.282 µM) | 2 µg/mL (≈ 1.13 µM) | 1 µg/mL (≈ 0.565 µM) | 1.4 µg/mL | ≤ 0.06 µg/mL | 4 µg/mL (≈ 2.26 µM) | 2 µg/mL (≈ 1.13 µM) | 0.5 µg/mL (≈ 0.282 µM) | 32 µg/mL (≈ 18.1 µM) | 4 µg/mL (≈ 2.26 µM) | ≤ 0.06 µg/mL | 0.5 µg/mL (≈ 0.282 µM) | 1 µg/mL (≈ 0.565 µM) | 0.5 µg/mL (≈ 0.282 µM) | MIC [2]: ≤ 0.06 µg/mL; MIC [5]: 1 µg/mL (≈ 0.565 µM) |
| CNC(CC(C)C)C(=O)NC1C(=O)NC(CC(N)=O)C(=O)NC2C(=O)NC3C(=O)NC(C(=O)NC(C(=O)O)c4cc(O)cc(O)c4-c4cc3ccc4O)C(OC3CC(C)(N)C(O)C(C)O3)c3ccc(c(Cl)c3)Oc3cc2cc(c3OC2OC(CO)C(O)C(O)C2OC2CC(C)(NCCCCCCCCc3ccccc3)C(O)C(C)O2)Oc2ccc(cc2Cl)C1O (centres unmarked) [Compound 176] | 0.13 µg/mL | 2 µg/mL (≈ 1.12 µM) | 2 µg/mL (≈ 1.12 µM) | 2 µg/mL (≈ 1.12 µM) | ≤ 0.06 µg/mL | 1 µg/mL (≈ 0.562 µM) | 2 µg/mL (≈ 1.12 µM) | 0.5 µg/mL (≈ 0.281 µM) | 1 µg/mL (≈ 0.562 µM) | 1.2 µg/mL |  | 2 µg/mL (≈ 1.12 µM) | 4 µg/mL (≈ 2.25 µM) | 2 µg/mL (≈ 1.12 µM) | 8 µg/mL (≈ 4.49 µM) | 2 µg/mL (≈ 1.12 µM) | 0.125 µg/mL (≈ 0.0702 µM) | 2 µg/mL (≈ 1.12 µM) | 1 µg/mL (≈ 0.562 µM) | 0.5 µg/mL (≈ 0.281 µM) | MIC [5]: 1 µg/mL (≈ 0.562 µM) |
| CNC(CC(C)C)C(=O)NC1C(=O)NC(CC(N)=O)C(=O)NC2C(=O)NC3C(=O)NC(C(=O)NC(C(=O)O)c4cc(O)cc(O)c4-c4cc3ccc4O)C(OC3CC(C)(N)C(O)C(C)O3)c3ccc(c(Cl)c3)Oc3cc2cc(c3OC2OC(CO)C(O)C(O)C2OC2CC(C)(NCCCCCCCCOc3ccc(-c4ccccc4)cc3)C(O)C(C)O2)Oc2ccc(cc2Cl)C1O (centres unmarked) [Compound 201] | 0.44 µg/mL | 4 µg/mL (≈ 2.14 µM) | 4 µg/mL (≈ 2.14 µM) | 8 µg/mL (≈ 4.27 µM) | 0.5 µg/mL (≈ 0.267 µM) | 4 µg/mL (≈ 2.14 µM) | 4 µg/mL (≈ 2.14 µM) | 8 µg/mL (≈ 4.27 µM) | 4 µg/mL (≈ 2.14 µM) | 1.2 µg/mL | ≤ 0.06 µg/mL | 8 µg/mL (≈ 4.27 µM) | 8 µg/mL (≈ 4.27 µM) | 0.5 µg/mL (≈ 0.267 µM) | 32 µg/mL (≈ 17.1 µM) | 8 µg/mL (≈ 4.27 µM) | 1 µg/mL (≈ 0.534 µM) | 8 µg/mL (≈ 4.27 µM) |  | 4 µg/mL (≈ 2.14 µM) | MIC [2]: ≤ 0.06 µg/mL; MIC [10]: 2 µg/mL (≈ 1.07 µM) |
| CNC(CC(C)C)C(=O)NC1C(=O)NC(CC(N)=O)C(=O)NC2C(=O)NC3C(=O)NC(C(=O)NC(C(=O)O)c4cc(O)cc(O)c4-c4cc3ccc4O)C(OC3CC(C)(N)C(O)C(C)O3)c3ccc(c(Cl)c3)Oc3cc2cc(c3OC2OC(CO)C(O)C(O)C2OC2CC(C)(NCc3ccc(-c4ccccc4[N+](=O)[O-])c([N+](=O)[O-])c3)C(O)C(C)O2)Oc2ccc(cc2Cl)C1O (centres unmarked) [Compound 213] | 0.55 µg/mL | ≤ 0.06 µg/mL | ≤ 0.06 µg/mL | ≤ 0.06 µg/mL | ≤ 0.06 µg/mL | ≤ 0.06 µg/mL | ≤ 0.06 µg/mL | ≤ 0.06 µg/mL | ≤ 0.06 µg/mL | 1.0 µg/mL | ≤ 0.06 µg/mL | 2 µg/mL (≈ 1.08 µM) | 0.5 µg/mL (≈ 0.27 µM) | 0.125 µg/mL (≈ 0.0676 µM) | 32 µg/mL (≈ 17.3 µM) | 2 µg/mL (≈ 1.08 µM) | ≤ 0.06 µg/mL | ≤ 0.06 µg/mL | ≤ 0.06 µg/mL | 0.5 µg/mL (≈ 0.27 µM) | MIC [10]: ≤ 0.06 µg/mL |
| C=CCCCCCCCCNC1(C)CC(OC2C(Oc3c4cc5cc3Oc3ccc(cc3Cl)C(OC3CC(C)(N)C(O)C(C)O3)C3NC(=O)C(NC(=O)C5NC(=O)C(CC(N)=O)NC(=O)C(NC(=O)C(CC(C)C)NC)C(O)c5ccc(c(Cl)c5)O4)c4ccc(O)c(c4)-c4c(O)cc(O)cc4C(C(=O)O)NC3=O)OC(CO)C(O)C2O)OC(C)C1O (centres unmarked) [Compound 214] | 0.024 µg/mL | 1 µg/mL (≈ 0.578 µM) | 0.25 µg/mL (≈ 0.144 µM) | 0.5 µg/mL (≈ 0.289 µM) | ≤ 0.06 µg/mL | 0.5 µg/mL (≈ 0.289 µM) | 1 µg/mL (≈ 0.578 µM) | 1 µg/mL (≈ 0.578 µM) | 1 µg/mL (≈ 0.578 µM) | 0.71 µg/mL | ≤ 0.06 µg/mL | 2 µg/mL (≈ 1.16 µM) | 1 µg/mL (≈ 0.578 µM) | 0.25 µg/mL (≈ 0.144 µM) | 32 µg/mL (≈ 18.5 µM) | 2 µg/mL (≈ 1.16 µM) | 0.125 µg/mL (≈ 0.0722 µM) | 1 µg/mL (≈ 0.578 µM) | 1 µg/mL (≈ 0.578 µM) | ≤ 0.06 µg/mL | MIC [5]: 2 µg/mL (≈ 1.16 µM); MIC [10]: 0.5 µg/mL (≈ 0.289 µM) |
